Experimental data: US20130324522A1, “INSECT ODORANT RECEPTOR ANTAGONISTS” (THE ROCKEFELLER UNIVERSITY, priority 2010, published 2013)
Read-outs that look alike come from different tables or passages of the source.

What was measured:
Or47a/Or83b = target: T1, Or47a/Or83b (Drosophila melanogaster, UniProt P81921+Q9VNB5); experiment: Ca2+-imaging of stable Flip-In T-Rex cell line Or47a/Or83b; assay type: cell-based; conditions: for inhibition at 4 µM: read-out: Percent Inhibition OR47a OR83b
T1 construct: Full-length cDNAs for mosquito (Anopheles gambiae) odorant receptor (OR1, OR2, OR7, OR8, OR28), and fly (Drosophila melanogaster) odorant receptor (Or47a, Or83b); expressed in transfected cells
T1 sequence (P81921 1-385): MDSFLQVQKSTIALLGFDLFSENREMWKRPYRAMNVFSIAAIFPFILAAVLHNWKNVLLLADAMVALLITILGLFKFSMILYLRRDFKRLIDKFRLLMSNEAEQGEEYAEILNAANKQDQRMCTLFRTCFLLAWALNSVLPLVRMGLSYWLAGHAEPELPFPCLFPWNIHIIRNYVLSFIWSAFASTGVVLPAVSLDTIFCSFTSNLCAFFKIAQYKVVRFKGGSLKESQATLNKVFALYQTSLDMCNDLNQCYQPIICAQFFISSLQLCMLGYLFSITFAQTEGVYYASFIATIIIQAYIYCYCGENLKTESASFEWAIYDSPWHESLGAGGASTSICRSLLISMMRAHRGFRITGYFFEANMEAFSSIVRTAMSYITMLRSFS
T1 sequence (Q9VNB5 1-486): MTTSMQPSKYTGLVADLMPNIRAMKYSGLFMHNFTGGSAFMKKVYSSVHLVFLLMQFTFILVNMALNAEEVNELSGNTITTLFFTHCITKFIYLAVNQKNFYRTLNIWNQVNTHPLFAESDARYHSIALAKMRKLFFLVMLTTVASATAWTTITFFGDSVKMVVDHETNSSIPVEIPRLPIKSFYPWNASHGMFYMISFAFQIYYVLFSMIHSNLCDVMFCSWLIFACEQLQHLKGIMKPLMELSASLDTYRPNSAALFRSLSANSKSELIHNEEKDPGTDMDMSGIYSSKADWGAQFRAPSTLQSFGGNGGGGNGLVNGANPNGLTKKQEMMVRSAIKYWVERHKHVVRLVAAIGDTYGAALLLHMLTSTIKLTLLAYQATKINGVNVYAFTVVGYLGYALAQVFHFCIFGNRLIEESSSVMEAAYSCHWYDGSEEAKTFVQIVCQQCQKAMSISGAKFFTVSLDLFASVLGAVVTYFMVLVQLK
Protocol: (§1) Full-length cDNAs for mosquito (Anopheles gambiae) odorant receptor (OR1, OR2, OR7, OR8, OR28), and fly (Drosophila melanogaster) odorant receptor (Or47a, Or83b), mouse TRP channel (TRPM8), and mouse serotonin receptor (5HT3) were obtained and subcloned into mammalian expression vectors. The following mammalian expression vectors were used:
Stable cell lines Or47a/Or83b and 5HT3 were generated from Flip-In T-Rex cells. Flip-In T-Rex-based cell lines were cultured in DMEM supplemented with these additional antibiotics: 6 μg/mL blasticidin and 100 μg/mL hygromycin.
Cells were trypsinized and split into 35 mm dishes 1 day before transfection. Confluent cells (60-70%) in 35 mm dishes were co-transfected with 1 μg of Or47a/Or83b plasmid in pcDNA5/FRT/TO/IRES plus the pOG44 plasmid or 1 μg of 5HT3 plasmid in pcDNA5/FRT/TO plus the pOG44 plasmid using lipofectamine 2000. Co-transfection of pOG44 and pcDNA5/FRT/TO/IRES or pcDNA5/FRT/TO allows expression of Flp recombinase and integration of the pcDNA5 plasmid into the genome via the FRT site. After one day of incubation, the transfected cells were transferred into 10 cm dishes with DMEM containing antibiotics: 20 μg/mL of hygromycin and 6 μg/mL of blasticidin. The concentration of Hygromycin was increased to 100 μg/mL when the population of cells became 30-40% confluent. The cells were cultured by changing medium every two days until cell clumps appeared. The clumps were picked and transferred into 96 well plates with DMEM containing 100 μg/mL of Hygromycin and 6 μg/mL of blasticidin. The cells were grown and transferred to 24 well plates, and ligand-evoked calcium increases were tested using the Hamamatsu FDSS6000 real time fluorescence plate reader.
(§2) Stable cell lines were cultured in 10 cm dishes, and confluent cells (70-80%) were trypsinized. 10,000 cells/20 μL were transferred into each well of 384-well plates coated with poly-D-lysine, and cultured for 2 days. For Flip-In T-Rex cells (cell lines expressing Or47a/Or83b and 5HT3), 5 μL of tetracycline (5 μg/mL) were added 1 day before the assay. 20 μL of Ca-4 dye was loaded into each well for 1.5 hr at room temperature in the dark, and the dye-loaded plates were subjected to Ca^2+-imaging using a Hamamatsu FDSS6000 real time fluorescence plate reader. Odorant solutions (9× final concentration) were prepared by dissolving 1M stock solutions into Hank's Buffered Salt Solution (HBSS), and 30 μL of odor solution was transferred to each well in 384-well plates.
(§3) Compounds ([…] in DMSO) were stored in 384-well plates, and last two columns (32 wells total) contained only DMSO. 200 nL of small compounds were transferred into the odorant plates before the assay using the Perkin-Elmer Janus workstation. The odorant plates were spun down to remove air bubbles, and placed on the FDSS6000 plate loader, and 5 μL of odorant solution was applied to the cell plate on the FDSS6000. Ca^2+ increase was monitored with fluorescence at 525 nm by excitation at 485 nm.

TRP channel (TRPM8) = target: T2, TRP channel (TRPM8) (Mus musculus, UniProt Q8R4D5); experiment: Ca2+-imaging of stable HEK293T cell line TRPM8; assay type: cell-based; conditions: for inhibition at 4 µM: HEK-293T, read-out: Percent Inhibition TRPM8
T2 construct: Full-length cDNAs for mosquito (Anopheles gambiae) odorant receptor (OR1, OR2, OR7, OR8, OR28), and fly (Drosophila melanogaster) odorant receptor (Or47a, Or83b), mouse TRP channel (TRPM8); expressed in transfected cells
Protocol: as §1
Stable cell lines OR1/OR7, OR2/OR7, OR8/OR7, OR10/OR7, OR28/OR7 and TRPM8 were generated from HEK293T cells. HEK293T-based cell lines were cultured in DMEM supplemented with these additional antibiotics: 6 μg/mL blasticidin and 1 μg/mL puromycin, with the exception of the TRPM8 cell lines, which was cultured in DMEM supplemented with 1 μg/mL puromycin.
Cells were trypsinized and split into 35 mm dishes one day before transfection. Confluent cells (60-70%) in 35 mm dishes were transfected with 1 μg of insect OR(X) plasmids in pME18s-bla and 1 μg of OR7-pME18s-puro using lipofectamine 2000. For Anopheles odorant receptors, two plasmids were co-transfected into HEK cells: the ligand-specific receptor (OR1, OR2, OR8, OR28) and the corresponding olfactory co-receptor: OR7. Cell lines containing TRPM8 were transfected with single plasmid.
as §2, §3

[1] = ligand pentyl acetate 30 μM, read-out: IC50 OR47a OR83b
[2] = ligand menthol 300 μM, read-out: IC50 TRPM8

T2 sequence (Q8R4D5 whole entry): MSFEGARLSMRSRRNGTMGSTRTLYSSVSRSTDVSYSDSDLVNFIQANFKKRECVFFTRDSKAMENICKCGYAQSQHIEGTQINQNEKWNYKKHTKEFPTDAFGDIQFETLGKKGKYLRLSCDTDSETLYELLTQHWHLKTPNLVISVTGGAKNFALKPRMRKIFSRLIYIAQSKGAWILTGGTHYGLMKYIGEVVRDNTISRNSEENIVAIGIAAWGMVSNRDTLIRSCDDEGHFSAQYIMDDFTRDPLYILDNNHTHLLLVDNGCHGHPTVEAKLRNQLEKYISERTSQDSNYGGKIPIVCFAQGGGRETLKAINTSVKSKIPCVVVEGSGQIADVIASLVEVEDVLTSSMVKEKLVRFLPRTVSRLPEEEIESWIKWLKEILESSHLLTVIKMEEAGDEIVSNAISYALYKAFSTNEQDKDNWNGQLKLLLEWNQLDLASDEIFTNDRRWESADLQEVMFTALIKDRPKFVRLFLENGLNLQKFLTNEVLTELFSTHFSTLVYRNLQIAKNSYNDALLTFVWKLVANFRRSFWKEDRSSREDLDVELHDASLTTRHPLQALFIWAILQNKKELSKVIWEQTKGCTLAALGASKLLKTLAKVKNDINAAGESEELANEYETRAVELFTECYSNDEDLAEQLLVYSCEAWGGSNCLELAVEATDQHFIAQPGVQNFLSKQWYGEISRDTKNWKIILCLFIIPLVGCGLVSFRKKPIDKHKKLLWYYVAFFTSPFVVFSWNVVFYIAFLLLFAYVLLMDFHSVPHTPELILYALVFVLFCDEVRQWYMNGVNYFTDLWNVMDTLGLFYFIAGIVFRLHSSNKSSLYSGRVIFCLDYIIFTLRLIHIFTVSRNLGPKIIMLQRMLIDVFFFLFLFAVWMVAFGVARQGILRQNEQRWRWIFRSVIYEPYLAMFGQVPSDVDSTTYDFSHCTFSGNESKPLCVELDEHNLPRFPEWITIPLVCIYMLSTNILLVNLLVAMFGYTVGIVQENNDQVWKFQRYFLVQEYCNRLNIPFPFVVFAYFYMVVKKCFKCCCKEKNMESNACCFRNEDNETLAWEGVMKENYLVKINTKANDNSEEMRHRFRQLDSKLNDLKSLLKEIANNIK

For `CCn1c(C)c(C(=O)CN(CC2CCCO2)C(=O)C2C[C@H]2c2ccccc2)c(C)c1C(=O)OC` (stereo partly drawn) [RU-0071273], the IC50 (Or47a/Or83b; Table B, read-out: IC50 OR47a) was over 1 µM, the inhibition at 4 µM (Or47a/Or83b; compound applied at 4 μM) was 26 to 50% and the inhibition at 4 µM (TRP channel (TRPM8); compound applied at 4 μM) was under 25%.
In the case of `CC(C)Nc1nc(NC(C)C)nc(C(F)(F)F)n1` [RU-T8], the IC50 (Or47a/Or83b) is reported as over 20 µM and the IC50 (TRP channel (TRPM8)) is reported as over 20 µM.
In the case of `C=CCN(Cc1nccn1Cc1ccccc1F)C(=O)C1CCCC1` [RU-0058964], the IC50 (Or47a/Or83b; Table B, read-out: IC50 OR47a) is reported as over 1 µM, the inhibition at 4 µM (Or47a/Or83b; compound applied at 4 μM) is reported as 51 to 74% and the inhibition at 4 µM (TRP channel (TRPM8); compound applied at 4 μM) is reported as 26 to 50%.
Compound `Fc1cccc(Cl)c1Cn1ccnc1CN(CC1CCCC1)C1CC1` [RU-I4] has an IC50 (Or47a/Or83b; [1]) of over 20 µM and an IC50 (TRP channel (TRPM8); [2]) of over 20 µM.
`CCN(CC)C(=O)Oc1ccc2c(ccn2Cc2ccccc2Cl)c1NC(=O)CCCCC(=O)OC` [RU-0075446] showed an inhibition at 4 µM (Or47a/Or83b) of under 25% and an inhibition at 4 µM (TRP channel (TRPM8)) of under 25%.
`COc1ccc(OCC(=O)N2CCOC(Cc3ccccc3)C2)cc1` (stereo not drawn) [RU-0050384] was tested, and the inhibition at 4 µM (Or47a/Or83b; compound applied at 4 μM) was 26 to 50% and the inhibition at 4 µM (TRP channel (TRPM8); compound applied at 4 μM) was under 25%.
`Cc1c(C(=O)NCc2ccco2)cnn1-c1ccccc1` [RU-0047765] was tested, and the IC50 (Or47a/Or83b; Table B, read-out: IC50 OR47a) was over 1 µM, the inhibition at 4 µM (Or47a/Or83b; compound applied at 4 μM) was 26 to 50% and the inhibition at 4 µM (TRP channel (TRPM8); compound applied at 4 μM) was 26 to 50%.
For `COCCCN(Cc1c(-c2ccccc2)noc1N1CCC(C)CC1)C(=O)c1ccccc1F` [RU-0036876], the IC50 (Or47a/Or83b; Table B, read-out: IC50 OR47a) was over 1 µM, the inhibition at 4 µM (Or47a/Or83b; compound applied at 4 μM) was 51 to 74% and the inhibition at 4 µM (TRP channel (TRPM8); compound applied at 4 μM) was under 25%.
Work on `O=C(c1ccco1)N(Cc1nccn1Cc1c(F)cccc1Cl)C1CC1` [RU-0048046] yielded an inhibition at 4 µM (Or47a/Or83b; compound applied at 4 μM) of 26 to 50% and an inhibition at 4 µM (TRP channel (TRPM8); compound applied at 4 μM) of under 25%.
Compound `C=CCN(Cc1nccn1Cc1cccc(F)c1)C(=O)c1ccccc1F` [RU-I1] has an IC50 (Or47a/Or83b; [1]) of over 20 µM and an IC50 (TRP channel (TRPM8); [2]) of over 20 µM.
With `C=CCOc1cccc(C(=O)N2CCCC(C(=O)c3ccccc3OC)C2)c1` (stereo not drawn) [RU-0029409] the inhibition at 4 µM (Or47a/Or83b; compound applied at 4 μM) was 51 to 74% and the inhibition at 4 µM (TRP channel (TRPM8); compound applied at 4 μM) was 26 to 50%.
With `CCN(CC)C(=O)Oc1ccc2c(ccn2Cc2ccc(Cl)cc2)c1NC(=O)C1CC1` [RU-0075475] the inhibition at 4 µM (Or47a/Or83b) was under 25% and the inhibition at 4 µM (TRP channel (TRPM8)) was under 25%.
`COCCCN(Cc1c(-c2ccccc2)noc1N1CCCC1)C(=O)c1ccc(F)cc1` [RU-0037386] gave an IC50 (Or47a/Or83b; Table B, read-out: IC50 OR47a) of over 1 µM, an inhibition at 4 µM (Or47a/Or83b; compound applied at 4 μM) of 51 to 74% and an inhibition at 4 µM (TRP channel (TRPM8); compound applied at 4 μM) of under 25%.
With `CCN(C)c1onc(-c2ccccc2)c1CN(CCCOC)C(=O)c1ccco1` [RU-0051926] the inhibition at 4 µM (Or47a/Or83b; compound applied at 4 μM) was 26 to 50% and the inhibition at 4 µM (TRP channel (TRPM8); compound applied at 4 μM) was under 25%.
With `O=C(c1ccco1)N(Cc1nccn1Cc1ccccc1Cl)CC1CC1` [RU-0047281] the IC50 (Or47a/Or83b; Table B, read-out: IC50 OR47a) was over 1 µM, the inhibition at 4 µM (Or47a/Or83b; compound applied at 4 μM) was over 75% and the inhibition at 4 µM (TRP channel (TRPM8); compound applied at 4 μM) was 51 to 74%. It also gave an IC50 (TRP channel (TRPM8); Table B, read-out: IC50 TRPM8) of over 1 µM.
For `CC(C)N(Cc1nccn1Cc1c(F)cccc1Cl)C(=O)c1ccc(Cl)cc1` [RU-0055364], the inhibition at 4 µM (Or47a/Or83b; compound applied at 4 μM) was 26 to 50% and the inhibition at 4 µM (TRP channel (TRPM8); compound applied at 4 μM) was under 25%.
For `CN(C)c1ccc(C(=O)N2CCOC(COCc3ccccc3F)C2)cc1` (stereo not drawn) [RU-0050325], the IC50 (Or47a/Or83b; Table B, read-out: IC50 OR47a) was over 1 µM, the inhibition at 4 µM (Or47a/Or83b; compound applied at 4 μM) was 26 to 50% and the inhibition at 4 µM (TRP channel (TRPM8); compound applied at 4 μM) was under 25%.
